{"source": "patent US7528235B2", "about": "“Multi-functional antibodies” (The Regents of the Univarsity of California, priority 2003, dated 2009)", "key": {"2D12.5": {"test_system": "2D12.5", "experiment": "relative binding curves of 2D12.5 for Y-DOTA isomers and Y-DOTA molecules with different sidechain locations", "set-up": "species or system murine", "conditions": "for relative binding affinity, different sidechain locations: Y-DOTA molecules, FIG. 17; for relative binding affinity, Y-DOTA isomers: coordinated metal Y^3+, FIG. 16", "excerpt": "FIG. 16 is a graphical display showing the relative binding curves of 2D12.5 for Y-DOTA isomers and Y-DTPA. 2D12.5 binds both the (R)- and (S)-isomers of 2-(4-nitrobenzyl)-DOTA when the coordinated metal is Y^3+ (the same behavior is expected for the other rare earths). The (S)-isomer confers Λ-helicity, while the (R)-isomer confers Δ-helicity to the acetate arms. […] Y-DOTA (no-sidearm) exists is solution as a racemic mixture of the coordination isomers.\nFIG. 17 is a graphical display showing the relative binding curves of Y-DOTA molecules with different sidechain locations. […] Evaluation of the crystal structure seems to indicate that shorter substitutions at this position may bind with higher affinity. Substitutions at other locations may yield reasonably high affinitites as well. The (5-Amino-2-methoxy-phenyl)-carboxymethyl)-DOTA analyzed in this experiment was racemic, so it is not clear which isomer binds with higher affinity. The low pKa of the carboxymethyl proton makes it difficult to prepare a chirally pure molecule."}, "antibody 2D12.5": {"test_system": "antibody 2D12.5", "experiment": "competitive immunoassay (ELISA) of metal-DOTA complexes against immobilized Y-DOTA", "format": "binding, murine", "conditions": "37° C., DOTA analog [S]-2-(p-nitrobenzyl)-DOTA", "excerpt": "FIG. 13 is graphical display showing the relative binding of metal-DOTA complexes to antibody 2D12.5. A representative set of competitive binding curves obtained from ELISA experiments described in Example 3 below. Error bars (representing the standard error of the mean) are shown, but are generally smaller than the data points.\nElements plotted in the order Sc (open circle), Lu, Yb, Tm, Er, Ho, Y (open diamond), Dy, Tb, Gd, Eu, Sm, Nd, Pr, Ce, La. ΔΔG values relative to Y-DOTA, set at 0. Error bars represent standard error of the mean.\nTo determine the metal selectivity of the antibody 2D12.5, a competitive immunoassays was used to measure the binding constants of multiple metal-DOTA complexes relative to Y^3+-DOTA.\nWe examined the monoclonal antibody 2D12.5, initially developed to bind specifically to Y-DOTA for targeted radiotherapy (see, e.g., Goodwin et al., i Cancer Res. 54: 5937-5946 (1994)), in order to determine the scope of its activity. To assess the metal selectivity of antibody 2D12.5, a competitive immunoassay to measure the binding constants of various metal-DOTA complexes relative to the original Y^3+ complex was developed (FIG. 12). Briefly, 2D12.5 was incubated at 37° C. in the presence of immobilized Y-DOTA and a soluble metal-DOTA competitor. […] Binding was measured by standard methods known to those of skill in the art. […]"}, "Janus-DOTA": {"test_system": "Janus-DOTA", "conditions": "for Janus-DOTA, a bivalent form of DOTA; cited from earlier work"}, "[1]": {"conditions": "24 hours after administration of the bound complex; cited from earlier work"}, "[2]": {"test_system": "(S) nitrobenzyl-DOTA chelates", "conditions": "for (S) nitrobenzyl-DOTA chelates; cited from earlier work"}}}
{"molecule": "(5-Amino-2-methoxy-phenyl)-carboxymethyl)-DOTA", "values": [{"measurement": "relative binding affinity, different sidechain locations", "setting": "2D12.5", "result": "still sufficiently strong"}]}
{"molecule": "O=C(O)CN1CCN(CC(=O)O)CCN(CC(=O)O)C(Cc2ccc([N+](=O)[O-])cc2)CN(CC(=O)O)CC1", "note": "(single isomer, unassigned; isomer 2) [(R)-isomer, 2-(4-nitrobenzyl)-DOTA]", "values": [{"measurement": "relative binding affinity, Y-DOTA isomers", "setting": "2D12.5", "result": "affinity decreases less than an order of magnitude"}]}
{"molecule": "Gd-DOTA", "values": [{"measurement": "binding strength relative to the original Y^3+ complex (in words)", "setting": "antibody 2D12.5", "result": "bind more tightly than the original Y^3+ complex"}, {"measurement": "binding strength relative to the original Y^3+ complex (in words)", "setting": "antibody 2D12.5; listed as Gd^3+", "result": "strongest binders"}]}
{"molecule": "O=C(O)CN1CCN(CC(=O)O)CCN(CC(=O)O)[C@@H](Cc2ccc([N+](=O)[O-])cc2)CN(CC(=O)O)CC1", "note": "(single isomer, unassigned) [(S)-isomer]", "values": [{"measurement": "relative binding affinity, different sidechain locations", "setting": "2D12.5", "result": "clearly stronger"}, {"measurement": "relative binding affinity, Y-DOTA isomers", "setting": "2D12.5", "result": "preferred isomer for binding"}]}
{"molecule": "2D12.5: anti-chelate monoclonal antibody that binds metal chelates of DOTA and similar structures (antibody, listed as Mus musculus, V domains shown, murine monoclonal antibody 2D12.5 heavy chain variable domain (VH); murine monoclonal antibody 2D12.5 light chain variable domain (VL)) VH: QVKLQESGPGLVQPSQSLSITCTVSGFSLTDYGVHWVRQSPGKGLEWLGVIWSGGGTAYTAAFISRLNIYKDNSKNQVFFEMNSLQANDTAMYYCARRGSYPYNYFDVWGQGTTVTVSS VL: QAVVTQESALTTSPGETVTLTCRSSTGAVTTSNYANWVQEKPDHLFTGLIGGNNNRPPGVPARFSGSLIGDKAALTIAGTQTEDEAIYFCALWYSNHWVFGGGTRLTVLG", "values": [{"measurement": "binding constant Ks", "setting": "Janus-DOTA", "result": "≈ 10^8"}, {"measurement": "2D12.5 bound to metal chelates present", "setting": "[1]", "result": "74-96%"}, {"measurement": "binding constant Ks", "setting": "[2]", "result": "≈ 10^8"}]}
